Experimental findings from ChEMBL document CHEMBL5325435, “Optimization of an α-aminonaphthylmethylphosphonic acid inhibitor of purple acid phosphatase using rational structure-based design approaches” (Eur J Med Chem, 2023) are described below.

This assay can be described thus: Competitive inhibition of pig uterine fluid fully reduced PAP using p-NPP as substrate measured at 4.9 by UV-Vis spectrophotometric analysis. The format is tissue-based, Sus scrofa.
With `CCCCCCCCCCCCCCCCOCC(=O)NC(c1ccccc1)P(=O)(O)O` (racemic), the affinity corresponds to a Ki of 550 nM.

Consider `CCCCCCCCCCCCCCCCCC(=O)NC(c1ccc(OC)cc1)P(=O)(O)O` (racemic), for which the affinity corresponds to a Ki of 186 nM.

As to `CCCCCCCCOCC(=O)NC(c1ccccc1)P(=O)(O)O` (racemic), the affinity, expressed as Ki, was 56000 nM.

As to `CCCCCCCCCCCCCCCCCC(=O)NC(c1ccccc1)P(=O)(O)O` (racemic), the affinity corresponds to a Ki of 168 nM.

For `CCCCCCCCCCCCCCCC(=O)NC(c1ccc(OCC)cc1)P(=O)(O)O` (racemic), the Ki (in general, the dissociation constant of the complex between target and ligand, obtained from inhibition or displacement) was determined as 610 nM.

Molecule `CCCCCCCCCCCC(=O)NC(c1ccccc1)P(=O)(O)O` (racemic) came in with a Ki of 31000 nM.

With `CCCCCCCCCCCCCCCCCC(=O)NC(c1ccc(OCC)cc1)P(=O)(O)O` (racemic), affinity was put at a Ki of 6000 nM.

For the molecule `CCCCCCCCCC(=O)NC(c1ccccc1)P(=O)(O)O` (racemic), affinity was put at a Ki of 19000 nM. This Ki lies about 3.2-fold higher than the previous one.

`CCCCCCCCCCCCCC(=O)NC(c1ccc(OCC)cc1)P(=O)(O)O` (racemic) yielded a Ki of 3000 nM.

In the case of `CCCCCCCCCCCCCC(=O)NC(c1ccccc1)P(=O)(O)O` (racemic), the Ki was found to be 320 nM. This Ki lies about 9.4-fold lower than the previous one.

For `CCCCCCCCCCCCCCCC(=O)NC(c1ccccc1)P(=O)(O)O` (racemic), the Ki is 320 nM.

Consider `CCCCCCCCCCCC(=O)NC(c1ccc(OC)cc1)P(=O)(O)O` (racemic), for which the affinity, expressed as Ki, was 3000 nM.

`CCCCCCCCCCCCCCCC(=O)NC(c1ccc(OC)cc1)P(=O)(O)O` (racemic) gave a Ki of 340 nM.

`CCCCCCCCCCCCCC(=O)NC(c1ccc(OC)cc1)P(=O)(O)O` (racemic) registered a Ki of 400 nM.

Consider `CCCCCCCCCCCCCCCCOCC(=O)NC(c1ccc(OC)cc1)P(=O)(O)O` (racemic), for which the affinity corresponds to a Ki of 270 nM.
